Test results taken from PMC5703966, “Systemic clearance and brain distribution of carbazole-based cyanine compounds as Alzheimer’s disease drug candidates” (Scientific Reports, 2017).
Like-named read-outs stand apart in the source and are kept apart here.

Tests used:
[1] = Liver microsomes binding by RED device; format: in vitro ADME
Protocol: Nonspecific binding in plasma (f u, plasma), microsomes (f u, mic) and hepatocyte (f u, hep) were determined using the method seen in supplemental information (Supplemental Methods). […]
Plasma, liver microsomes and hepatocyte binding by RED device […]
The stability of the compounds in plasma, liver microsomes and hepatocyte were studied to ensure […]
the reliability of the binding data. Hepatocyte was deactivated by leaving them on a bench for 2 days […]
and going through a freeze thaw cycle thereafter. […]
denatured. Testosterone was used as a control for CYP3A to ensure no turnover, so that the enzymes […]
were inactivated. All validation compounds were incubated at 37 °C over 4 h, and in triplicate. […]
For liver mi crosomes without cofactors and […]
mg/mL protein concentration, same as the assay condition) or deactivated hepatocytes (0.5 million […]
cells/mL, same as the assay condition) were added to the donor wells. 10 mM DMSO solutions of SLM […]
and SLOH were diluted to 50 µM (10% DMSO). 490 µL aliquots microsomes (0.51 mg/mL) and […]
hepatocytes (0.51 million cells/mL) were dispensed into a 1.5 mL tube, and then pre-warmed at 37 °C […]
in a shaking water bath. The assay was started by addition of 10 µL aliquots of compound solutions to […]
the corresponding biologica l matrices (final DMSO incubation concentration 0.2%, microsomes […]
concentration 0.50 mg/mL, hepatocytes concentration 0.5 million cells/mL). At 0, 15, 30, 60, 120, 180 […]
MS/MS. Natural logarithm of peak area ratios (compound peak area normalized by IS peak area) were plotted against time and half-life calculated. […]
placed into the sample chamber (indicated by the red ring) with 400 µL of PBS into the adjacent chamber.
The plate was sealed with a self-adhesive lid and incubated at 37 °C on an orbital shaker (1.5 g approx.) for 4 h. Aliquots (100 µL) were removed from each side of the insert, and analyzed after protein precipitation using 4 folds acetonitrile (ACN) containing berberine chloride as internal standard (IS) by LC-MS/MS (Analytical me thod seen below). The experimental procedure outlined in the Thermo Scientific RED device systems brochure was adopted in the present study . […]
For control experiments, NADPH, UDPGA and/or liver microsomes were omitted from these incubations. For the purposes of metabolite identification studies, the concentration of SLOH and […]

[2] = Systemic clearance and brain distribution in WT and 3 × Tg-AD mice (8 months); format: in vivo, mouse; conditions: mouse; for Kp: brain interstitial fluid (unbound) versus plasma (unbound), read-out: K puu,brain; for clearance / Vd / half-life / MRT inf: plasma; for Vd: read-out: Vdss; for MRT inf: read-out: MRT 0−∞
Protocol: The transgenic (Tg) AD mice (B6; 129-Psen1 ^tm1Mpm Tg (APPSwe, tauP301L) 1Lfa/Mmjax) and the corresponding wild-type (WT) (B6129SF2/J) mice was obtained from the Jackson Laboratory (Bar Harbor, Maine, USA), and maintained by the Animal Facility of Faculty of Health Sciences in University of Macau. Either 27 WT or AD mice (8 months) were randomly separated into 9 groups with 3 mice at each time point. Blood and brain were collected at time points 0.083, 0.167, 0.25, 0.5, 1, 2, 4, 8 and 16 hours after i.v. dosing (1 mg/kg). Mice were euthanized by isoflurane followed by cervical dislocation. All the plasma, urine, bile and brain samples were stored at −70 °C for subsequent analysis. The analytical methods for systemic and brain PK parameters were shown in supplemental information (Supplemental Methods).
Parameters in animals were determined using non-compartmental analysis. […] Systemic Cl p was calculated as the i.v. dose divided by AUC0−∞ ^iv. The terminal rate constant (K el) was calculated by a linear regression of the log-linear concentration-time curve, and the terminal elimination t 1/2 was calculated as 0.693 divided by K el. Mean residence time from t = 0 to infinity (MRT 0−∞) was calculated as AUMC 0−∞ divided by AUC 0−∞. Apparent steady-state distribution volume (Vd ss) was determined as Cl p multiplied by MRT 0−∞. […] The Cl bile was derived as the amount of (in milligrams) of SLM or SLOH in the bile over the 24-hour interval postdose/AUC0-24h. The influx clearance into brain (K in) was calculated by using the amount of drug in the brain (homogenate) at time t (A, brain (t)) (corrected for the amount of drug remaining in the cerebral vasculature) divided by plasma exposure up to this time point (AUC, plasma (0 − t)). The C u,brain was calculated by A brain (homogenate, ng/g brain) divided by V u,brain (mL/g brain). The unbound ISF to plasma ratio (K puu,brain) was calculated by unbound AUC 0−t of ISF (ng/mL × min) divided by unbound AUC 0–t (ng/mL × min) of plasma.

Aβ = tested on: Aβ; set-up: method as in PMID 22086555; conditions: cited from earlier work
[3] = human liver microsomes 0.5 mg/mL
[4] = mouse liver microsomes 0.5 mg/mL
[5] = 3×Tg-AD (B6;129-Psen1tm1Mpm Tg(APPSwe,tauP301L)1Lfa/Mmjax), iv, 1 mg/kg, AD mice 8 months, 1 mg/kg i.v.
[6] = 3×Tg-AD (B6;129-Psen1tm1Mpm Tg(APPSwe,tauP301L)1Lfa/Mmjax), iv, AD mice 8 months, 1 mg/kg i.v., read-out: Cl p (converted)
[7] = 3×Tg-AD (B6;129-Psen1tm1Mpm Tg(APPSwe,tauP301L)1Lfa/Mmjax), iv, AD mice 8 months, 1 mg/kg i.v.
[8] = B6129SF2/J (WT) and 3×Tg-AD, intravenous, 1 mg/kg, WT and AD mice (8 months), no significant difference, read-out: plasma clearance (converted)
[9] = B6129SF2/J (wild-type), iv, 1 mg/kg, WT mice 8 months, 1 mg/kg i.v.
[10] = B6129SF2/J (wild-type), iv, WT mice 8 months, 1 mg/kg i.v.
[11] = B6129SF2/J (wild-type), iv, WT mice 8 months, 1 mg/kg i.v., read-out: Cl p (converted)
[12] = iv, AD mice 8 months, 1 mg/kg i.v.

Row | f u,mic % [1, 3] [%] | f u,mic % [1, 4] | Kp [2, 5] | clearance [2, 6] [mL/min/kg] | Vd [2, 7] [L/kg] | clearance [2, 8] [mL/min/kg] | Kp [2, 9] | half-life [2, 10] [h] | clearance [2, 11] [mL/min/kg] | MRT inf [2, 10] [h] | Vd [2, 10] [L/kg] | half-life [2, 12] [h] | MRT inf [2, 12] [h] | SMILES | reduction of Aβ fibrillogenesis in vitro (Aβ)
1 | 6.60 ± 1.60 | 17.0 ± 2.40^$ % | 8.1 | 10 | 2.3 ± 0.71 | ~10 | 0.98 ± 0.22 | 4.3 ± 1.1 | 7.5 | 3 ± 1.2 | 2.1 ± 0.45 | 4.8 ± 1.2 | 2.9 ± 0.38 | COCCOCCn1c2ccccc2c2cc(/C=C/c3cc[n+](CCO)c4ccccc34)ccc21 [SLOH, (E)-1-(2-hydroxyethyl)-4-(2-(9-(2-(2-metho-xyethoxy)-ethyl)-9H-carbazol-3-yl)vinyl) quinolin-1-ium chloride] | reduce Aβ fibrillogenesis significantly
2 | 7.30 ± 0.150 | 11.0 ± 1.06^$ % | 11 | 13.2 | 1.3 ± 0.32 | ~11.7 | 2.5 ± 0.44 | 6 ± 1 | 11.3 | 1.5 ± 0.18 | 1.3 ± 0.58 | 3.5 ± 1 | 1.7 ± 0.55 | COCCOCCn1c2ccccc2c2cc(/C=C/c3cc[n+](C)c4ccccc34)ccc21.[I-] [SLM, (E)-4-(2-(9-(2-(2-methoxyethoxy)ethyl)-9H-carbazol-3-yl)-vinyl)-1-methyl-quinolin-1-iumiodide] | reduce Aβ fibrillogenesis significantly
